Source: patent publication US11447505B1, “Pyrrolo[2,3-b]pyridine compounds and their use in the treatment of cancer” (priority 2017, dated 2022)
Entries after “also recorded” stand apart in the source; their conditions may differ.

Key:
pMLC2 = pMLC2 immunofluorescence, Operetta high-throughput imaging; format: cell-based, human
Source text: Cells were imaged using an Operetta high-throughput imaging platform. Green: pMLC2; yellow: actin; red: whole cell dye; blue: DAPI; Scale bar: 100 μm. (ii) Automated image analysis was undertaken to compare pMLC2 levels in control and irradiated cells. Data are derived from two biological repeats, each analysing >400 cells per condition.
Cells were imaged using an Operetta high-throughput imaging platform. Automated image analysis was used to compare pMLC2 levels. Data from two biological repeats with >400 cells per condition per biological replicate. Data plotted as a percentage of vehicle. […] Cells were imaged using an Operetta high-throughput imaging platform.

G7 and E2 cells = assay: Clonogenic survival assay with irradiation; format: cell-based, human; settings: 100 nM, G7 or E2 cells
Source text: (§4) FIG. 4. […] N.S.=not significant. […] Cells were imaged using an Operetta high-throughput imaging platform. Red: actin, blue: DAPI, Scale bar: 100 μm. Automated image analysis was undertaken to quantify changes in neurite morphology. Data from >1000 cells.

G7 intracranial tumours = assay: Survival of mice bearing G7 intracranial GBM tumours; format: in vivo, mouse
Description: Female CD1 nude mice were orthotopically injected with 1×10^5 G7 or U87MG cells into the subventricular zone as previously described (16, 17). Tumours were allowed to establish […] magnetic resonance imaging (MRI) to confirm presence of tumour. Radiation treatments were conducted using an XSrtahl Small Animal Radiation Research Platform (SARRP). 5 mg/kg BDP-9066 or vehicle (20% propylene glycol/80% PBS) was given subcutaneously twice daily or at stated time before cull for PK analysis. Tumours were sub-dissected and fresh frozen specimens sent for PK analysis (Vertex, UK). Formalin fixed, paraffin embedded sections were stained for Ki67, HLA or phosphoMYPT1 then scanned using a Hamamatsu Nanozoomer Slide scanning machine with Leica SlidePath Slide imaging software. Algorithms were optimised for each stain individually and automated, quantitative analysis undertaken. The defining of contralateral regions was performed blinded.
FIG. 6. […] (A) Outline of experiment to measure in vivo survival to BDP-9066 treatment. G7 intracranial tumours were allowed to establish for 10 weeks before initiation of treatment. Mice in the RT cohorts received 6×2 Gy whole brain RT over the course of two weeks. Only mice that were culled after the first 3 fractions of RT were included in the analysis to allow for any treatment benefit to take effect. The study was randomised, blinded and the mice stratified across the cohorts based on starting tumour size as assessed by T2 MRI. (B) Kaplan-Meier plot showing survival data. N.S.=not significant, *<p 0.05, **p<0.005. Statistical analysis: Log-rank (Mantel-Cox) test.
Pharmacological inhibition of MRCK when combined with radiotherapy confers a significant survival benefit to intracranial GBM tumour bearing mice. G7 intracranial tumours were established in four cohorts of mice: vehicle, BDP-9066, RT+vehicle and RT+BDP-9066 (FIG. 6A) and the 4 week treatment schedule outlined in FIG. 6A was commenced at 10 weeks post tumour cell injection. The experiment was terminated at 104 days after a final T2 MRI on the remaining mice.

MRCKα pS1003 = MRCKα pS1003 immunohistochemical staining of topically treated mouse skin and papillomas; settings: vs DMSO
Description: (§5) Mice were culled 2 hours after final treatment. […] Mice were culled 2 hours, 4 hours, 8 hours or 24 hours after final treatment.
(§6) For DMBA/TPA experiments, 40 FVB mice were treated topically with 25 μg DMBA in acetone on day 1. From day 5, 4.7 μg TPA in acetone was applied 3 times weekly. […] Experimenters were fully blinded to the identity of treatment groups. Mice weights and general conditions were monitored at least 2 times per week, tumor sizes and numbers were recorded weekly. Mice were culled when papillomas reached 12 mm in diameter. Analysis of tumor volume and papilloma numbers were performed blinded to the identity of treatment groups.

E2 cells [1] = assay: Ex vivo migration assay of irradiated GBM cells on murine brain slices; format: cell-based, human; settings: 100 nM, 2 Gy
Description: (§7) Cells were irradiated using an Xstrahl RX225 radiation cabinet (195 kV X-rays, dose rate 1.39 Gy/minute). For sub confluent migration assays, 2×10^5 cells per well were plated at in 6 well dishes and migration imaged by timelapse microscopy capturing images every 15 mins. Migration velocity was calculated using single cell tracking via ImageJ analysis. For ex vivo migration assays, cell were seeded onto fresh 1 mm coronal brain slices obtained from 6-8 week old C57BL/6 mice in culture medium (described above) and allowed to establish overnight with incubation at 37° C., 5% CO2. Brain slices were then inverted onto Lumox 35 mm dishes (8 μm, Sarstedt) and secured with Nuclepore Track-Etch membrane (Whatman) sealed with Matrigel. Migration was captured via confocal timelapse microscopy with images taken every 15 mins. Migration velocity was calculated using single cell tracking via ImageJ analysis.
(§8) (B) Treated cells were exposed to 0 Gy or 2 Gy and imaged in a sub-confluent migration assay. Cell speed was measured by single cell tracking. […] Data from 3 biological replicates. (D) Fluorescently labelled E2 cells were exposed to 0 Gy or 2 Gy radiation and seeded onto fresh murine brain slices. […] Data from 3 biological replicates. […] Baseline value of 34% was calculated from the average of 10 non-motile, non-irradiated cells. […]

G7 cells = assay: Cell viability assay; format: cell-based, human
Source text: as §4

Plasma protein binding = format: in vitro ADME
MRCKβ [2] = molecular target: T1, MRCKβ (Homo sapiens (Human), UniProt Q9Y5S2); assay: MRCKβ cellular assay (pMLC T18/S19 immunoblot, MDA-MB-231 cells with doxycycline inducible kinase domain); format: cell-based; settings: MDA-MB-231 cells, doxycycline inducible kinase domain, 60 minutes, pMLC (T18/S19); read-out: Cellular assay - MRCK-b inhibition MEAN
Description: (§1) MRCKβ, ROCK1 and ROCK2 Cellular Assays
(§2) MDA-MB-231 cells expressing doxycycline inducible ROCK1, ROCK2 or MRCKβ kinase domains were plated at 1.1×10^5 cells per well of a 12 well plate. After 24 hours, cells were treated with 1 μg/ml doxycycline for 18 hours to induce kinase domain expression and then tested over a suitable concentration range with compounds of the invention for 60 minutes. Cells were then washed with PBS and lysed with Tris-SDS lysis Buffer (50 mM Tris-HCl pH7.4, 0.5% (v/v) SDS, 1×PhosStop Inhibitors (04 906 837 001; Roche) and 1×Complete Protease Inhibitors (04 693 124 001; Roche)). Whole cell lysates were clarified by passing through QIAshredder spin columns, separated by SDS-PAGE, and quantitative immunoblotting performed using a LI-COR Odyssey IR scanner to determine pMLC (T18/S19) and α-Tubulin levels.

[3] = PK analysis in mice bearing intracranial U87MG or G7 tumours, subcutaneous dosing; format: in vivo, mouse
Description: (§9) Female CD1 nude mice were orthotopically injected with 1×10^5 G7 or U87MG cells into the subventricular zone as previously described (16, 17). Tumours were allowed to establish for before magnetic resonance imaging (MRI) to confirm presence of tumour. Radiation treatments were conducted using an XSrtahl Small Animal Radiation Research Platform (SARRP). […] Tumours were sub-dissected and fresh frozen specimens sent for PK analysis (Vertex, UK). Formalin fixed, paraffin embedded sections were stained for Ki67, HLA or phosphoMYPT1 then scanned using a Hamamatsu Nanozoomer Slide scanning machine with Leica SlidePath Slide imaging software. Algorithms were optimised for each stain individually and automated, quantitative analysis undertaken. The defining of contralateral regions was performed blinded.
(§10) Tumours were sub-dissected from normal brain tissue and analysed by mass spectrometry to determine total compound levels (‘Total’). […] G7 intracranial tumours were allowed to establish for 12 weeks before initiation of treatment. The study was randomised and blinded. […] (D) Brain sections were stained by IHC for pMYPT1 levels (i). Levels of nuclear and cytoplasmic pMYPT1 were quantified by automated analysis using SlidePath. Statistical analysis: two tailed, unpaired t test. *p<0.05.

pMYPT1 = pMYPT1 IHC of brain sections from mice bearing G7 intracranial tumours; format: in vivo, mouse; settings: 3×2 Gy whole brain RT + 5 mg/kg twice daily for 10 days; listed as BDP-9066
Description: as §9, §10

DMBA/TPA skin papillomas = assay: DMBA/TPA mouse model of squamous cell carcinoma, topical treatment; format: in vivo; settings: topical 25 μg 5 times per week for 14 weeks, vs DMSO
Description: as §6

[4] = molecular target: kinase targets listed in tables 3 and 4 (Homo sapiens, UniProt Q13464); assay: biochemical
Chain of kinase targets listed in tables 3 and 4 (Homo sapiens, UniProt Q13464) (Q13464 2-1354 limits assumed): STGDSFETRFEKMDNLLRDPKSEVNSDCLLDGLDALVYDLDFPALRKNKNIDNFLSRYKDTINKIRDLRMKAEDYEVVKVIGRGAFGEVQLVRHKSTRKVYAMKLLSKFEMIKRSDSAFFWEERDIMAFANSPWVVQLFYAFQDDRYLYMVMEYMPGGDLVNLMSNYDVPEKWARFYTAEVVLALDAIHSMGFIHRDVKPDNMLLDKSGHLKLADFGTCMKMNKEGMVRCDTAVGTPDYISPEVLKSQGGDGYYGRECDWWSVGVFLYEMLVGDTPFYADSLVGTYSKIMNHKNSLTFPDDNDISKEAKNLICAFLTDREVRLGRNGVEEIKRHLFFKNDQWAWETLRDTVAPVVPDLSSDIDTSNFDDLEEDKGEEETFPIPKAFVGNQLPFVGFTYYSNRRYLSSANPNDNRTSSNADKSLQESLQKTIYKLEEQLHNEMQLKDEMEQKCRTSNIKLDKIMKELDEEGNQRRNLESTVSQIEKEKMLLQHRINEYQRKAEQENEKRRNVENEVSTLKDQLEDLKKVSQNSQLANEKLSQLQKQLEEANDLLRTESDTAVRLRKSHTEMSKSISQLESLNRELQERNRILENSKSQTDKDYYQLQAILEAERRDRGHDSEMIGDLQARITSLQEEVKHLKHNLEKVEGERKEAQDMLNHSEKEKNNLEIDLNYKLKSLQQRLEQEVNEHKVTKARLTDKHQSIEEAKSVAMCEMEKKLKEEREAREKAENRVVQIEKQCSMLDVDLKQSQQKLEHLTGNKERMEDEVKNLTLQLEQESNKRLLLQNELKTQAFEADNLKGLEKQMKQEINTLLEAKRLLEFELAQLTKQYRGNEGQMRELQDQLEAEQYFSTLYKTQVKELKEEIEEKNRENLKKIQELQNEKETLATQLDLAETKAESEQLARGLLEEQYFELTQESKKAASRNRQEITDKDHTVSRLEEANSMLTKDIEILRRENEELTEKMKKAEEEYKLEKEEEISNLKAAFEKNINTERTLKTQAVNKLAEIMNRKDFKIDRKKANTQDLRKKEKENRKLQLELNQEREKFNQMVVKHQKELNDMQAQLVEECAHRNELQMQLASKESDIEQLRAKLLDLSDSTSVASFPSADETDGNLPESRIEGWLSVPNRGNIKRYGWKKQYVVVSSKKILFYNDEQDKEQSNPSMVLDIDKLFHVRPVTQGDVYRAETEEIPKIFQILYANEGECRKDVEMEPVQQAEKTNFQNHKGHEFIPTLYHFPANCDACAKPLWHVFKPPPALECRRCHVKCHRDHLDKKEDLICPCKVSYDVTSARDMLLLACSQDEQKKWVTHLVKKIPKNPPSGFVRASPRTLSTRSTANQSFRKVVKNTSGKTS

[5] = molecular target: kinase targets listed in tables 3 and 4 (Homo sapiens, UniProt Q9Y5S2); assay: biochemical
Chain of kinase targets listed in tables 3 and 4 (Homo sapiens, UniProt Q9Y5S2) (Q9Y5S2 whole entry, looked up): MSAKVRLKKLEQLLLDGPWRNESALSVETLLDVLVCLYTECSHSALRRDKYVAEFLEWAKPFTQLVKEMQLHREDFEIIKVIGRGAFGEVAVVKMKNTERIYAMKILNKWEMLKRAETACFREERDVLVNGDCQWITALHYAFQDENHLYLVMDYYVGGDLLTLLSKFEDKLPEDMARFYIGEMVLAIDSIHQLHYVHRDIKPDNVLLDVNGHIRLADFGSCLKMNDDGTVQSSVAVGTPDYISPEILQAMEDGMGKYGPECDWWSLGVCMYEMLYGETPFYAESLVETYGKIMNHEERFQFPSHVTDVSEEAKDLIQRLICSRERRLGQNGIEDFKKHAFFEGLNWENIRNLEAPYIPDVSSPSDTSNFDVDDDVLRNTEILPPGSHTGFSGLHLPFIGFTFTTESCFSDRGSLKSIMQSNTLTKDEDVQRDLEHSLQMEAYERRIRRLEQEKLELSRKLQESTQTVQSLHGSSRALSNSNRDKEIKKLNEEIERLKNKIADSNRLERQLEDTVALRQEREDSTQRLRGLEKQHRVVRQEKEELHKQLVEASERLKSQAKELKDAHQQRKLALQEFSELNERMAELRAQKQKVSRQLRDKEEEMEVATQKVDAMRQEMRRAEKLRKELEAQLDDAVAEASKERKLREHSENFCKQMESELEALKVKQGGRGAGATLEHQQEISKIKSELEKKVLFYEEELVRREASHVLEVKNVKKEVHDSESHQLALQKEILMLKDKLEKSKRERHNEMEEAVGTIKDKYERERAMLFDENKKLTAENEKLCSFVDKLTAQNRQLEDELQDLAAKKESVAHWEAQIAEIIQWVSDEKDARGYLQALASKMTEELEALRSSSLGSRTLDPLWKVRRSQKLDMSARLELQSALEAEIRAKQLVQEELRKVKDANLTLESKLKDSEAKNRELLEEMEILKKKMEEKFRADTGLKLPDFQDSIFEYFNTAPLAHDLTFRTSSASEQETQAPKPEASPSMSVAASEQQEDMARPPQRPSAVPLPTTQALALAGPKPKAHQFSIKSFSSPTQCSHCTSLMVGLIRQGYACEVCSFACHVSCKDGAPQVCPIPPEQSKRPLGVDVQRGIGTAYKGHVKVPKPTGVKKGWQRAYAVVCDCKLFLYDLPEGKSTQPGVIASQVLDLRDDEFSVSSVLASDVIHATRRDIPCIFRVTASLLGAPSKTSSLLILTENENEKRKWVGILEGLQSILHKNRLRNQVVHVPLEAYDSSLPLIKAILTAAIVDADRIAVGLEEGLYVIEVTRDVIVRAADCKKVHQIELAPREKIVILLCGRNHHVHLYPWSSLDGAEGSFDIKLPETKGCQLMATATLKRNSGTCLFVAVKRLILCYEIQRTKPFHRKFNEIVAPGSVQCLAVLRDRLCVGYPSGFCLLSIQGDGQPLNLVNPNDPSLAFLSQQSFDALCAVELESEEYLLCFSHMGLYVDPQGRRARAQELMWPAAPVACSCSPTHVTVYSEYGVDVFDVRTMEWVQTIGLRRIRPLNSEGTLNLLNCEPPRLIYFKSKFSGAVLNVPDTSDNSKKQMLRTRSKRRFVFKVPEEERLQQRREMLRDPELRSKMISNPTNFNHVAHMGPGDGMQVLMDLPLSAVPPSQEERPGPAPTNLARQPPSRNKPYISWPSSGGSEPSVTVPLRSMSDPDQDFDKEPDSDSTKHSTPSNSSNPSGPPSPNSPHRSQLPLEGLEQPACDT

[6] = molecular target: kinase targets listed in tables 3 and 4 (Homo sapiens, UniProt Q9BXA7); assay: biochemical
Chain of kinase targets listed in tables 3 and 4 (Homo sapiens, UniProt Q9BXA7) (Q9BXA7 whole entry, looked up): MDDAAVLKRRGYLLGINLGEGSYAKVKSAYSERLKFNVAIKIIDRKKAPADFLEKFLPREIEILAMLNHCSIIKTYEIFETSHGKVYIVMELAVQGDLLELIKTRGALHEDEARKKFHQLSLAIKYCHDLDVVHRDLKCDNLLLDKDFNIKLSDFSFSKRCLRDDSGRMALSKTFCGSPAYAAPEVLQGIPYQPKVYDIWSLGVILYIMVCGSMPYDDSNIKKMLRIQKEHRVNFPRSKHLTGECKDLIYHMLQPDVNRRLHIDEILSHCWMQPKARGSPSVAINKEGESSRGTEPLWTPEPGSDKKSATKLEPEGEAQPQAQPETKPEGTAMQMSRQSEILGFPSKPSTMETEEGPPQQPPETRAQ

ROCK1 [7] = molecular target: T2, ROCK1 (Homo sapiens (Human), UniProt Q13464); assay: biochemical
T2 sequence (Q13464 2-1354 limits assumed): as the sequence (Q13464 2-1354 limits assumed) above

MRCKβ [8] = molecular target: T1, MRCKβ; assay: MRCKβ kinase assay (IMAP fluorescence polarization); format: biochemical; settings: 1 μM ATP; read-out: MRCK-B Average Ki
Source text: (§3) MRCKα, MRCKβ, ROCK1 and ROCK2 Kinase Assays

E2 and G7 cells = assay: Sub confluent migration assay of irradiated GBM cells (timelapse, single cell tracking); format: cell-based, human; settings: 2 Gy
Description: as §7, §8

E2 cells [9] = assay: Neurite morphology, automated image analysis; format: cell-based, human; settings: cells treated with irradiation
Source text: as §4

ROCK1 [10] = molecular target: T2, ROCK1; assay: ROCK1 cellular assay (pMLC T18/S19 immunoblot, MDA-MB-231 cells with doxycycline inducible kinase domain); format: cell-based; settings: MDA-MB-231 cells, doxycycline inducible kinase domain, 60 minutes, pMLC (T18/S19); read-out: Cellular assay - ROCK1 inhibition MEAN
Description: as §1, §2

ROCK2 = ROCK2 (Homo sapiens (Human), UniProt O75116); assay: ROCK2 kinase assay (IMAP fluorescence polarization); format: biochemical; settings: 1 μM ATP; read-out: ROCK2 Average Ki
Chain of ROCK2 (O75116 whole entry): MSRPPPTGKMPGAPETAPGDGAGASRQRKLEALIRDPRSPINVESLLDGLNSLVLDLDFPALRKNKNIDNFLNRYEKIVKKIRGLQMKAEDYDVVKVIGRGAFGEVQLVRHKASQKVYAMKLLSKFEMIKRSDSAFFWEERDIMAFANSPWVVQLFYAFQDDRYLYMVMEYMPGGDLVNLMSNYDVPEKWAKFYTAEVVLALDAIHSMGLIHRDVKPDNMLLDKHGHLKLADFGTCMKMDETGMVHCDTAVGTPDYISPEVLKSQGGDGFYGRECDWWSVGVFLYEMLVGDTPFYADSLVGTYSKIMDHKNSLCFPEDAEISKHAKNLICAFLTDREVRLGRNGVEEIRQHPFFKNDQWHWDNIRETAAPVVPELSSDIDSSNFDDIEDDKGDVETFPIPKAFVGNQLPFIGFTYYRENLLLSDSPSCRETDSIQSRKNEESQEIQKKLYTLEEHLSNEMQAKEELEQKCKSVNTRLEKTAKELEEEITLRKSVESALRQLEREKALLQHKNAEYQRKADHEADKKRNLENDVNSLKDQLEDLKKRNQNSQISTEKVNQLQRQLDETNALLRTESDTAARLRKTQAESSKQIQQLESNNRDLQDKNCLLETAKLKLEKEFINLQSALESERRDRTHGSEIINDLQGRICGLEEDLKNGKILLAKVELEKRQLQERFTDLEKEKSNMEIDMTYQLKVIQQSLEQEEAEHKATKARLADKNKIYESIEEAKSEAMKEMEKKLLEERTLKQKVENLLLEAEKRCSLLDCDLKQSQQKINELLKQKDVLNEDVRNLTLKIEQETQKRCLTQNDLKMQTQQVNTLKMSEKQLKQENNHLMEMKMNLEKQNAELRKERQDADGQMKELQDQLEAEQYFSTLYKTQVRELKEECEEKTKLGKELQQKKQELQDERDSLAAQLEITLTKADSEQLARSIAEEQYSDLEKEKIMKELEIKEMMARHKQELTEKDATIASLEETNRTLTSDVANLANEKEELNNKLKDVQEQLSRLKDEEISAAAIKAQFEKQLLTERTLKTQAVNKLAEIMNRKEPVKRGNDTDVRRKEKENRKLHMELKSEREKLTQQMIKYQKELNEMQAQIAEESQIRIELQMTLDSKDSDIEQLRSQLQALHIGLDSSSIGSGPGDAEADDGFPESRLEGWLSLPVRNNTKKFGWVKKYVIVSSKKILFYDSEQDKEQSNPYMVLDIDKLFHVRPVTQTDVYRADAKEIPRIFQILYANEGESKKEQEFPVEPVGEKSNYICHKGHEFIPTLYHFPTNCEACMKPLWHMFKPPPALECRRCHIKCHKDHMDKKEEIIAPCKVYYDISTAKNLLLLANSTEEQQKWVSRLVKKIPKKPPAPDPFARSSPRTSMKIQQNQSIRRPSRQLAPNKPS

[11] = Skin and blood compound concentrations after topical application to FVB mice
Description: as §5, §6

MRCKα = MRCKα (Homo sapiens (Human), UniProt Q5VT25); assay: MRCKα kinase assay (IMAP fluorescence polarization); format: biochemical; settings: 1 μM ATP; read-out: MRCK-a Average Ki
Source text: as §3

[12] = FVB, mouse, skin, topical, 25 μg

c1cc(-c2c[nH]c3nccc(N4CCC[C@@]5(CCCCN5)C4)c23)ncn1 [Example E117, (6S)-8-(3-pyrimidin-4-yl-1H-pyrrolo[2,3-b]pyridin-4-yl)-1,8-diazaspiro[5.5]undecane]
IC50 (pMLC2; Homo sapiens, light or radiation study, irradiated G7 and E2 cells): 56 nM
response in biomarker assay (pMLC2) (pMLC2; cells treated with irradiation): robust dose dependent response
radiation sensitivity measured by clonogenic survival (G7 and E2 cells): no impact
survival, combined with RT vs untreated cohort (G7 intracranial tumours; 6×2 Gy whole brain RT, p=0.0007, listed as BDP-9066): significant survival advantage; also recorded: highly significant increase in survival
survival, combined with RT vs radiation alone (G7 intracranial tumours; 6×2 Gy whole brain RT, p=0.0459): significantly above
survival, compound alone (G7 intracranial tumours; vs untreated cohort): no significant survival benefit
MRCKα pS1003 cytoplasmic histoscores in papillomas (MRCKα pS1003; DMBA/TPA mice, topical 25 μg): reduced histoscores
MRCKα pS1003 cytoplasmic histoscores in the treated skin area (MRCKα pS1003; DMBA/TPA mice, topical 25 μg): reduced histoscores
MRCKα pS1003 immunohistochemistry staining (MRCKα pS1003; DMBA/TPA treated skin, topical 25 μg): significant decreases
epidermal MRCKα pS1003 positive staining (MRCKα pS1003; topical 4×25 μg over 2 days, FVB mouse skin): significant reduction; also recorded: significantly reduced
radiation driven ex vivo brain slice invasion (E2 cells [1]): fully oppose
cell viability at higher concentrations (G7 cells; higher concentrations, likely off target toxicity): loss of cell viability
cell viability (G7 cells; sub-micromolar levels / anti-invasive concentrations, G7 cells, listed as BDP-9066): does not affect cell survival; also recorded: No effect
PPB free value (Plasma protein binding): 72.7%
fraction unbound (Plasma protein binding; plasma): 0.727
IC50 (MRCKβ [2]): 28.3 nM
penetration of intracranial tumours ([3]; 5 mg/Kg subcutaneous, 30 mins prior to cull, U87MG and G7 tumours, listed as BDP-9066): penetrates intracranial GBM xenografts; also recorded: penetrated intracranial tumours
presence in blood at the time of culling ([3]; 5 mg/kg subcutaneous twice daily for 10 days): micromolar concentrations
bioavailability ([3]; PK profile, data not shown): good bioavailability
clearance ([3]; PK profile, data not shown): rapid clearance
exposure in the brain, contralateral hemisphere ([3]; sub-cutaneous dosing, absence of significant tumour burden): very low exposure
radiation driven MYPT1 phosphorylation (pMYPT1): inhibits; also recorded: opposes
average papilloma volume per mouse (DMBA/TPA skin papillomas): significantly reduced
skin papilloma appearance at study end (DMBA/TPA skin papillomas): appeared visually smaller
total papilloma numbers per mouse (DMBA/TPA skin papillomas): not different
total tumor volume per mouse (DMBA/TPA skin papillomas): significantly reduced
IC50 [4]: 141 nM
Ki [4]: 54 nM
IC50 [5]: 8.3 nM
Ki [5]: 1.38 nM
IC50 [6]: 287 nM
Ki [6]: 136 nM
Ki (ROCK1 [7]): 18.4 nM
Ki (MRCKβ [8]): 0.0233 nM
radiation driven sub confluent migration (E2 and G7 cells; 100 nM, G7 and E2 cells): fully oppose
cell speed of irradiated GBM cells (E2 and G7 cells; increasing concentrations, E2 and G7 cells): robust dose response
response in morphological assay (neurites) (E2 cells [9]): robust dose dependent response
IC50 (ROCK1 [10]): 10600 nM
Ki (ROCK2): 5.38 nM
compound in blood at experimental endpoint ([11]; DMBA/TPA FVB mice, topical 25 μg 5 times per week for 14 weeks): no detectable levels; also recorded: undetectable
concentration at 2 h ([11]; FVB, mouse, blood, topical, 25 μg): 0.04 µM
concentration at 14 weeks [11, 12]: > 1 µM
concentration at 2 h [11, 12]: 26 µM
concentration at 24 h [11, 12]: > 16 µM
clearance in the blood ([11]; by deactivation and/or metabolism): rapid clearance
drug levels in the skin compared with blood ([11]; topical 4×25 μg over 2 days, dorsal skin): significantly higher than in blood
mean concentration in the skin ([11]; topical administration, DMBA/TPA experiment): greater than 1 micromolar
level in blood 24 hours after final dosing ([11]; topical single 25 μg or 8×25 μg (4 days on, 2 off, 4 on)): undetectable
compound accumulation on repeated dosing ([11]; topical, repeated 25 μg vs single 10 μg): less than additive
Ki (MRCKα): 0.0136 nM
